Measured values as given in ChEMBL document CHEMBL1201862, “PubChem BioAssay data set” (2004).
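Each compound was tested at five concentrations against cells in 96-well plates for 48 hours. Here, GI50 denotes the concentration required for 50% inhibition of growth.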 The source made the active and inactive calls. No stated cut-off is given here; in the data, active = GI50 up to about 1.1 µM and inactive = higher.

Tests used:
Experiment in all cases: growth of human tumour cells (NCI), 48 h
786-0 = test system: 786-0
CCRF-CEM = test system: CCRF-CEM
HT-29 = test system: HT-29
Hs-578T = test system: Hs-578T
IGROV-1 = test system: IGROV-1
KM12 = test system: KM12
LOX IMVI = test system: LOX IMVI
M14 = test system: M14
NCI/ADR-RES = test system: NCI/ADR-RES
OVCAR-3 = test system: OVCAR-3
OVCAR-8 = test system: OVCAR-8
PC-3 = test system: PC-3
SK-MEL-5 = test system: SK-MEL-5
SK-OV-3 = test system: SK-OV-3
SN12C = test system: SN12C
SNB-19 = test system: SNB-19
TK-10 = test system: TK-10
UACC-257 = test system: UACC-257
UACC-62 = test system: UACC-62
MOLT-4 = test system: MOLT-4

SMILES	GI50 (786-0)	GI50 (CCRF-CEM)	GI50 (HT-29)	GI50 (Hs-578T)	GI50 (IGROV-1)	GI50 (KM12)	GI50 (LOX IMVI)	GI50 (M14)	GI50 (NCI/ADR-RES)	GI50 (OVCAR-3)	GI50 (OVCAR-8)	GI50 (PC-3)	GI50 (SK-MEL-5)	GI50 (SK-OV-3)	GI50 (SN12C)	GI50 (SNB-19)	GI50 (TK-10)	GI50 (UACC-257)	GI50 (UACC-62)	GI50 (MOLT-4)
CC(=O)Nc1c(C)cc(OCC(=O)O)cc1C	> 100 µM (inactive)	> 100 µM (inactive)	> 100 µM (inactive)	> 100 µM (inactive)	> 100 µM (inactive)	> 100 µM (inactive)	> 100 µM (inactive)	> 100 µM (inactive)	> 100 µM (inactive)	> 100 µM (inactive)	> 100 µM (inactive)	> 100 µM (inactive)	> 100 µM (inactive)	> 100 µM (inactive)	> 100 µM (inactive)	> 100 µM (inactive)	> 100 µM (inactive)	> 100 µM (inactive)	> 100 µM (inactive)	
NNc1nc2ccccc2s1	> 100 µM (inactive)	35.1 µM (inactive)	> 100 µM (inactive)	> 100 µM (inactive)	> 100 µM (inactive)	> 100 µM (inactive)	> 100 µM (inactive)	> 100 µM (inactive)	> 100 µM (inactive)		> 100 µM (inactive)	> 100 µM (inactive)	> 100 µM (inactive)		> 100 µM (inactive)	> 100 µM (inactive)	> 100 µM (inactive)	> 100 µM (inactive)	> 100 µM (inactive)	37.3 µM (inactive)
O=C(c1ccccc1)n1c(Cc2ccccc2)nc2cc(C34CC5CC(CC(C5)C3)C4)ccc21	61.9 µM (inactive)	50.5 µM (inactive)	43.6 µM (inactive)	> 100 µM (inactive)	53.6 µM (inactive)	69.7 µM (inactive)	30.5 µM (inactive)	43.4 µM (inactive)	31.8 µM (inactive)		37.2 µM (inactive)	49 µM (inactive)	27 µM (inactive)	96.2 µM (inactive)	35.8 µM (inactive)	58.1 µM (inactive)	> 100 µM (inactive)	53.1 µM (inactive)	48.6 µM (inactive)	35.9 µM (inactive)
Cc1cc(Cl)nc(Nc2nc3ccccc3[nH]2)n1	> 100 µM (inactive)	> 100 µM (inactive)	> 100 µM (inactive)	40.1 µM (inactive)	> 100 µM (inactive)		> 100 µM (inactive)	> 100 µM (inactive)	> 100 µM (inactive)	> 100 µM (inactive)	> 100 µM (inactive)	> 100 µM (inactive)	> 100 µM (inactive)	> 100 µM (inactive)	> 100 µM (inactive)	> 100 µM (inactive)	> 100 µM (inactive)	> 100 µM (inactive)	> 100 µM (inactive)	
O=C1N/N=C\c2ccc(cc2)OCc2cccc(n2)COc2ccc(cc2)/C=N\NC1=O	> 25 µM (inactive)	> 25 µM (inactive)	> 25 µM (inactive)	13.6 µM (inactive)	> 25 µM (inactive)	> 25 µM (inactive)		> 25 µM (inactive)	> 25 µM (inactive)	> 25 µM (inactive)	> 25 µM (inactive)	> 25 µM (inactive)		> 25 µM (inactive)	> 25 µM (inactive)	> 25 µM (inactive)	> 25 µM (inactive)	> 25 µM (inactive)	> 25 µM (inactive)	> 25 µM (inactive)
COc1ccc(C2SCC(=O)N2c2ccc(-c3ccc(-n4c(-c5ccccc5)nc5ccccc5c4=O)cc3)cc2)cc1OC (stereo unspecified)	44.4 µM (inactive)	20 µM (inactive)	45.2 µM (inactive)	69.5 µM (inactive)	37.7 µM (inactive)	7.85 µM (inactive)	17.8 µM (inactive)	52.7 µM (inactive)	61.2 µM (inactive)	26.5 µM (inactive)	27.5 µM (inactive)	42 µM (inactive)		40.3 µM (inactive)	> 100 µM (inactive)	84.5 µM (inactive)	25.2 µM (inactive)	61.5 µM (inactive)	29.2 µM (inactive)	22.4 µM (inactive)
Cc1ccc(S(=O)(=O)n2cc(-c3cnc(N)c(Br)n3)c3ccccc32)cc1	2.33 µM (inactive)		1.47 µM (inactive)	0.863 µM (active)	1.3 µM (inactive)	1.36 µM (inactive)	2.94 µM (inactive)	1.37 µM (inactive)	2.04 µM (inactive)	1.02 µM (active)	4.06 µM (inactive)	2.92 µM (inactive)	2.91 µM (inactive)	4.26 µM (inactive)	1.31 µM (inactive)	1.01 µM (active)	11.4 µM (inactive)	12.9 µM (inactive)	3.7 µM (inactive)	0.977 µM (active)
CCCCC1(NN=C2CCCCC2)C(=O)N(c2ccccc2)N(c2ccccc2)C1=O	> 100 µM (inactive)	21.6 µM (inactive)	> 100 µM (inactive)	> 100 µM (inactive)	> 100 µM (inactive)	> 100 µM (inactive)		> 100 µM (inactive)	> 100 µM (inactive)	> 100 µM (inactive)	> 100 µM (inactive)	> 100 µM (inactive)	> 100 µM (inactive)	> 100 µM (inactive)	> 100 µM (inactive)	> 100 µM (inactive)	> 100 µM (inactive)	> 100 µM (inactive)	> 100 µM (inactive)	26.2 µM (inactive)
COC(=O)[C@@H]1CC(C(CN)c2cn(C(=O)OC(C)(C)C)c3ccccc23)C(=O)N1C(=O)OC(C)(C)C (stereo partly specified)	31.3 µM (inactive)	14.4 µM (inactive)	24.8 µM (inactive)	28.2 µM (inactive)	17.9 µM (inactive)	52.2 µM (inactive)	14.8 µM (inactive)	50.7 µM (inactive)	17.2 µM (inactive)	24.6 µM (inactive)	21.7 µM (inactive)	18.4 µM (inactive)	17.2 µM (inactive)		17.8 µM (inactive)	69.3 µM (inactive)	38.9 µM (inactive)	17.7 µM (inactive)	15.1 µM (inactive)	17.1 µM (inactive)
CC(C)NC(=O)OCc1c(COC(=O)NC(C)C)c(-c2cc[n+](COC(=O)CC(C)(C)C)cc2)n2c1CCC2	> 100 µM (inactive)	> 100 µM (inactive)		> 100 µM (inactive)	> 100 µM (inactive)			> 100 µM (inactive)	> 100 µM (inactive)	> 100 µM (inactive)	> 100 µM (inactive)	> 100 µM (inactive)	> 100 µM (inactive)	> 100 µM (inactive)	> 100 µM (inactive)	> 100 µM (inactive)		> 100 µM (inactive)		> 100 µM (inactive)
CC1=NNC(=O)C1C1CC(c2c[nH]c3ccccc23)=NNC1=O (stereo unspecified)	> 100 µM (inactive)	> 100 µM (inactive)	> 100 µM (inactive)	> 100 µM (inactive)	0.773 µM (active)	62.7 µM (inactive)		> 100 µM (inactive)	> 100 µM (inactive)	> 100 µM (inactive)	> 100 µM (inactive)	> 100 µM (inactive)	> 100 µM (inactive)	> 100 µM (inactive)	> 100 µM (inactive)	> 100 µM (inactive)	> 100 µM (inactive)	> 100 µM (inactive)	> 100 µM (inactive)	> 100 µM (inactive)
COc1cc(S(=O)(=O)Nc2ccc(-c3csc(N4C(=O)CSC4c4cccc(Oc5ccccc5)c4)n3)cc2)ccc1Cl (stereo unspecified)	46.9 µM (inactive)	23.8 µM (inactive)	47 µM (inactive)	27.4 µM (inactive)	50.7 µM (inactive)	35.2 µM (inactive)	32.7 µM (inactive)	53 µM (inactive)	> 100 µM (inactive)	64.3 µM (inactive)	47 µM (inactive)	32.7 µM (inactive)	32.8 µM (inactive)	71 µM (inactive)	61.4 µM (inactive)	77.8 µM (inactive)			36.9 µM (inactive)	52 µM (inactive)
C=CC(Cl)(CBr)CCC(Br)=C(C)C (stereo unspecified)	25.6 µM (inactive)	26 µM (inactive)	19.5 µM (inactive)	28.2 µM (inactive)	12.1 µM (inactive)	20.2 µM (inactive)	15.7 µM (inactive)	25.5 µM (inactive)	28.8 µM (inactive)	24.5 µM (inactive)	24.9 µM (inactive)	21.3 µM (inactive)	17.1 µM (inactive)		16.9 µM (inactive)	34.5 µM (inactive)	26.3 µM (inactive)	25.8 µM (inactive)	18.6 µM (inactive)	> 100 µM (inactive)
O=c1[nH]cc(/N=C/c2cc(Cl)cc(Cl)c2O)c(=O)[nH]1	20.7 µM (inactive)	20 µM (inactive)	26.5 µM (inactive)	21.4 µM (inactive)	17 µM (inactive)	24.2 µM (inactive)		21 µM (inactive)	21.8 µM (inactive)	17.7 µM (inactive)	43.1 µM (inactive)	27.8 µM (inactive)	19.1 µM (inactive)	24.7 µM (inactive)	35.2 µM (inactive)	32.8 µM (inactive)	> 100 µM (inactive)	27.7 µM (inactive)	26.5 µM (inactive)	21.9 µM (inactive)
O=c1oc2ccccc2c(O)c1C1c2c(c3ccccc3oc2=O)Oc2c1c(=O)oc1ccccc21	43.1 µM (inactive)	36.5 µM (inactive)	30.2 µM (inactive)	46.8 µM (inactive)	35 µM (inactive)	26.4 µM (inactive)	38.5 µM (inactive)		60.7 µM (inactive)	61.8 µM (inactive)	32.1 µM (inactive)	50.6 µM (inactive)	21 µM (inactive)		30.1 µM (inactive)	48.5 µM (inactive)	51.9 µM (inactive)	34.8 µM (inactive)	21.4 µM (inactive)	47.5 µM (inactive)
